Measurements as given in the supplement of paper PMC10307832.

Legend:
Assay in all cases: relative viability (nuclei count vs DMSO), 5 days (fraction); higher = more cells survive
Olaparib + Navitoclax = compound: O=C(c1cc(Cc2n[nH]c(=O)c3ccccc23)ccc1F)N1CCN(C(=O)C2CC2)CC1 [Olaparib] + CC1(C)CCC(c2ccc(Cl)cc2)=C(CN2CCN(c3ccc(C(=O)NS(=O)(=O)c4ccc(N[C@H](CCN5CCOCC5)CSc5ccccc5)c(S(=O)(=O)C(F)(F)F)c4)cc3)CC2)C1 [Navitoclax] (partner 0.5 µM)
Summary of the method: (§1)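 Lung cancer cell lines were seeded in 1536-well plates and dosed by pin tool the next day, with either a single drug or a fixed anchor-drug dose combined with five library-drug doses (not always all listed) spaced in √10 steps. Five days later, one step fixed the cells and stained their nuclei (final 0.05% Triton X-100, 1% formaldehyde, 1 ug/ml Hoechst), and nuclei were counted on 4× images. Relative viability is the nuclei count in treated wells divided by the count in vehicle wells, and each value is the median of duplicate plates.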

Crizotinib + OSI-027 = compound: C[C@@H](Oc1cc(-c2cnn(C3CCNCC3)c2)cnc1N)c1c(Cl)ccc(F)c1Cl [Crizotinib] + COc1cccc2cc(-c3nc([C@H]4CC[C@H](C(=O)O)CC4)n4ncnc(N)c34)[nH]c12 [OSI-027] (partner 0.5 µM)
Summary of the method: as §1

Olaparib + Lapatinib = compound: O=C(c1cc(Cc2n[nH]c(=O)c3ccccc23)ccc1F)N1CCN(C(=O)C2CC2)CC1 [Olaparib] + CS(=O)(=O)CCNCc1ccc(-c2ccc3ncnc(Nc4ccc(OCc5cccc(F)c5)c(Cl)c4)c3c2)o1 [Lapatinib] (partner 2 µM)
Summary of the method: as §1

Olaparib + Dasatinib = compound: O=C(c1cc(Cc2n[nH]c(=O)c3ccccc23)ccc1F)N1CCN(C(=O)C2CC2)CC1 [Olaparib] + Cc1nc(Nc2ncc(C(=O)Nc3c(C)cccc3Cl)s2)cc(N2CCN(CCO)CC2)n1 [Dasatinib] (partner 0.075 µM)
Summary of the method: as §1

| Cell Line | relative viability (Olaparib + Navitoclax; first compound 0.08 µM) | relative viability (Olaparib + Navitoclax; first compound 0.253 µM) | relative viability (Olaparib + Navitoclax; first compound 2.53 µM) | relative viability (Olaparib + Navitoclax; first compound 8 µM) | relative viability (Crizotinib + OSI-027; first compound 0.01 µM) | relative viability (Crizotinib + OSI-027; first compound 0.03162 µM) | relative viability (Crizotinib + OSI-027; first compound 0.1 µM) | relative viability (Crizotinib + OSI-027; first compound 0.3162 µM) | relative viability (Crizotinib + OSI-027; first compound 1 µM) | relative viability (Olaparib + Lapatinib; first compound 0.08 µM) | relative viability (Olaparib + Lapatinib; first compound 0.253 µM) | relative viability (Olaparib + Lapatinib; first compound 2.53 µM) | relative viability (Olaparib + Lapatinib; first compound 8 µM) | relative viability (Olaparib + Dasatinib; first compound 0.08 µM) | relative viability (Olaparib + Dasatinib; first compound 0.253 µM) | relative viability (Olaparib + Dasatinib; first compound 2.53 µM) | relative viability (Olaparib + Dasatinib; first compound 8 µM) |
| --- | --- | --- | --- | --- | --- | --- | --- | --- | --- | --- | --- | --- | --- | --- | --- | --- | --- |
| 201T | 1.18 | 1.2 | 1.19 | 1.15 | 0.635 | 0.744 | 0.668 | 0.77 | 0.698 | 1.06 | 0.973 | 0.939 | 1 | 0.576 | 0.558 | 0.46 | 0.501 |
| A549 | 1.33 | 0.991 | 0.81 | 0.597 |  |  |  |  |  | 1.21 | 0.833 | 0.983 | 0.666 |  |  |  |  |
| A-427 | 0.946 | 0.93 | 0.526 | 0.554 | 0.352 | 0.447 | 0.414 |  | 0.441 | 1.13 | 0.931 | 0.879 | 1.02 | 0.793 | 0.691 | 0.586 | 0.54 |
| ABC-1 |  |  |  |  |  | 0.526 | 0.426 | 0.422 | 0.402 | 1.01 | 1.07 | 1.02 | 1.25 | 0.639 | 0.609 | 0.586 | 0.676 |
| BEN | 0.0771 | 0.0609 | 0.0668 | 0.0792 | 0.308 | 0.3 | 0.296 | 0.307 | 0.286 | 0.636 | 0.515 | 0.784 | 0.712 |  | 0.32 | 0.325 | 0.35 |
| CAL-12T | 1.35 | 1.19 | 1.41 | 1.08 | 0.639 | 0.71 | 0.67 |  | 0.586 | 0.94 | 0.643 | 0.631 | 0.664 | 0.597 | 0.281 | 0.363 | 0.283 |
| COR-L23 | 1.12 | 0.877 | 0.713 | 0.44 | 0.742 | 0.73 | 0.674 | 0.76 | 0.723 | 1.26 | 0.815 | 0.739 | 0.438 | 0.539 | 0.437 | 0.314 | 0.23 |
| COR-L 105 | 0.781 | 0.822 | 0.574 | 0.48 | 0.577 | 0.803 | 0.657 | 0.562 | 0.728 | 0.341 | 0.348 | 0.363 | 0.317 | 0.34 | 0.403 | 0.356 | 0.288 |
| Calu-6 | 0.859 | 0.741 | 0.764 | 0.506 |  |  |  |  |  | 1.23 | 0.995 | 0.893 | 0.724 |  |  |  |  |
| ChaGo-K-1 | 1.44 | 0.989 | 0.953 | 0.848 | 0.438 | 0.675 | 0.502 | 0.435 | 0.53 |  |  |  |  | 0.576 | 0.577 | 0.567 | 0.445 |
| EBC-1 | 0.46 | 0.403 | 0.44 | 0.318 |  |  |  |  |  | 0.247 | 0.235 | 0.236 | 0.201 |  |  |  |  |
| EKVX | 1.1 | 0.876 | 0.97 | 0.944 | 0.744 | 0.737 | 0.756 | 0.651 | 0.744 | 0.228 | 0.162 | 0.209 | 0.213 | 0.271 | 0.406 | 0.428 | 0.599 |
| EMC-BAC-2 | 1.37 | 1.1 | 0.999 | 1.01 | 0.431 | 0.391 | 0.342 | 0.295 | 0.36 | 0.921 | 0.88 | 0.852 | 0.758 | 0.365 | 0.382 | 0.471 | 0.338 |
| EPLC-272H | 1.28 | 1.1 | 1.16 | 0.995 | 0.312 | 0.253 | 0.287 | 0.252 | 0.259 | 1.16 | 0.848 | 1.08 | 1.01 | 0.43 | 0.293 | 0.414 | 0.338 |
| H3255 | 0.53 | 0.426 | 0.655 | 0.437 | 0.6 | 0.652 | 0.633 | 0.509 | 0.61 | 0.229 | 0.245 | 0.256 | 0.219 | 0.401 | 0.274 | 0.491 | 0.425 |
| HARA | 1.14 | 1.08 | 1.04 | 0.99 | 0.543 | 0.504 | 0.46 |  | 0.432 | 0.836 | 0.725 | 0.699 | 0.763 | 0.36 | 0.286 | 0.255 | 0.237 |
| HCC-15 | 0.751 | 0.657 | 0.719 | 0.643 | 0.626 | 0.754 | 0.633 |  | 0.568 | 0.999 | 0.752 | 0.808 | 0.765 | 0.659 | 0.584 | 0.655 | 0.631 |
| HCC-44 | 0.913 | 0.941 | 0.934 | 0.933 | 0.409 | 0.546 | 0.611 | 0.54 | 0.371 | 1.02 | 0.946 | 1.11 | 1.05 |  |  |  |  |
| HCC-78 | 0.977 | 0.738 | 0.819 | 0.572 |  | 0.365 | 0.29 | 0.307 | 0.34 | 0.853 | 0.522 | 1.01 | 0.666 | 0.451 | 0.31 | 0.426 | 0.331 |
| HCC-366 | 1.08 | 0.985 | 0.827 | 0.492 | 0.885 | 0.931 | 0.889 |  | 0.901 | 1.06 | 0.884 | 0.77 | 0.417 | 0.484 | 0.503 | 0.498 | 0.253 |
| HCC-827 | 0.979 | 0.933 | 0.978 | 0.855 | 0.704 | 0.738 | 0.793 | 0.461 | 0.467 | 0.239 | 0.202 | 0.194 | 0.176 | 0.27 | 0.315 | 0.387 | 0.281 |
